Data reported in US20100113465A1, “7-AZASPIRO[3.5]NONANE-7-CARBOXAMIDE COMPOUNDS” (Pfizer Inc., priority 2008, published 2010).

Key:
human FAAH = target: T1, human FAAH (Homo sapiens, UniProt O00519); assay: FAAH assay, human FAAH enzyme inhibition (kinact/Ki); format: biochemical; conditions: oleamide substrate 50 μM, 30° C., read-out: hFAAH kinact/Ki
T1 construct: made in house; host or cells: E. coli
T1 sequence (O00519 1-579): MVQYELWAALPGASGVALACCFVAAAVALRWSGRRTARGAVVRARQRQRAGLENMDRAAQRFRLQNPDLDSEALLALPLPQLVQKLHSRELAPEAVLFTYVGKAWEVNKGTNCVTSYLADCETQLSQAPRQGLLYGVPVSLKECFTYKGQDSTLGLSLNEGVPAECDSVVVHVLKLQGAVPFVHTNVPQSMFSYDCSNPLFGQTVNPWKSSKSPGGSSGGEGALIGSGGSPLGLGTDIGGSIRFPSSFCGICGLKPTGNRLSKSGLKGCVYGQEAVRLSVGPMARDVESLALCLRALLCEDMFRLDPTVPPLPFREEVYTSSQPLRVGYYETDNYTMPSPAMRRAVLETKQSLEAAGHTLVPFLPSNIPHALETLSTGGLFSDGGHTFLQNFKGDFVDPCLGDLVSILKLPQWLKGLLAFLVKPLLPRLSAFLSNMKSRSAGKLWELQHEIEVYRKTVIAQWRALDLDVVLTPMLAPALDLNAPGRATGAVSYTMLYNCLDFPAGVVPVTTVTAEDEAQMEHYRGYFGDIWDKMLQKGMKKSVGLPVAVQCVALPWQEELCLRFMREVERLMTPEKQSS
Experimental: (§1) The FAAH assay was carried out in 384-well clear polystyrene plates (Evergreen Scientific) in a total volume of 50 μl per well in a manner similar to that described by Mileni et al., Proc. Nat. Acad. Sci. 2008, 105, 12820-12824. All percents are by volume. Serial dilutions of compound were initially prepared in 100% DMSO, and then diluted two-fold into HPLC-grade H2O to give 50% DMSO. To each well, was placed the reaction mixture (40 μl) containing 1-4 nM FAAH, 50 mM NaPi, pH 7.4, 3 mM α-ketoglutarate, 0.15 mM NADH, 7.5 U/ml glutamate dehydrogenase, 2 mM ADP, 1 mM EDTA, and 0.1% Triton X-100 (The concentration shown for each component is the final concentration in the assay). To this mixture, was added 5 μl of a compound of Examples 1 to 56 at various concentrations in 50% DMSO (or 5 μl 50% DMSO for controls). This was immediately followed by the addition of 5 μl oleamide (500 μM) dissolved in 75% EtOH/25% DMSO and the reaction mixture was mixed for 1.5 min. The final concentrations of DMSO and EtOH in the assay were each 7.5%. The reactions were incubated at 30° C. and the absorbance at 340 nm was collected over a period of 90 min with readings taken in 30-second intervals using SpectraMax Plus^384 Microplate Spectrophotometer (Molecular Devices, Sunnyvale, Calif.). The human FAAH and rat FAAH used in the assay was prepared as described in the patent application WO 2006/067613 using wild-type E. coli cells transformed in St. Louis, Mo., U.S.A. The purity of the enzyme was greater than 98% based on an analysis by SDS-polyacrylamide gel electrophoresis followed by Coomassie Blue staining.
(§2) Reaction progress curves were corrected for the non-enzymatic oxidation of NADH by subtraction of absorbancies at each time point obtained from control reactions containing no FAAH enzyme. The loss of enzyme activity as a function of time is well-described by the following mathematical equation (1) for a mono-exponential decay: […]
(§3) where At represents the absorbance at time t, A0 represents the absorbance at time zero, and C represents a constant. Observed rates of enzyme inactivation (kobs) were determined from the non-linear reaction progress curves by fitting the corrected absorbancies to an equation for a mono-exponential decay using the third-party Microsoft Excel plug-in, XLfit (IDBS Limited). Secondary plots of kobs vs. inhibitor concentration were prepared from kobs values obtained from progress curves. Second-order rates for enzyme inactivation, expressed as kinact/Ki (M^−1s^−1), were calculated from the slopes from linear regression analysis of the secondary plot of kobs vs. inhibitor concentration as defined in following equation (2), where [I]<<Ki:
(§4) The concentration of substrate in the assay was equal to the Km for oleamide of 50 μM. Therefore, reported kinact/Ki values are obtained by multiplying resulting slopes by a factor of two (i.e. slope=kinact/(Ki*2)).

Male Sprague-Dawley Rats = assay: In vivo Complete Freund's Adjuvant (CFA) efficacy assay; parameters: species or system rat; key: (+) indicates the test compound was determined to be efficacious at 3 mpk, oral dosing; (−) indicates the test compound was determined to not be efficacious at 3 mpk, oral dosing; conditions: 3 mpk, oral dosing; inhibition of allodynia (PWT) four hours postdose vs vehicle, p<0.05
Experimental: For additional information on the CFA efficacy assay, see Jayamanne et al., Brit. J. Pharmacol. 2006, 147, 281-288. Experiments were performed on adult Male Sprague-Dawley Rats (200 g-250 g). Inflammation was induced in the left hindpaw of the rat by an intra-plantar injection of 150 uL Complete Freund's Adjuvant (CFA) (SIGMA F5881). The CFA injection immediately induces local inflammation, paw swelling, and pain that persists for at least two weeks post-injection. Baseline paw withdrawal threshold (PWT) was measured to determine the percent inhibition of allodynia using a set of Von Frey Hairs on day 4 post injection as illustrated by the Dixon Up and Down Method (W. J. Dixon, Ann. Rev. Pharmacol. Toxicol. 1980, 20:441-462). […] Test compound was administered at a concentration of 3 mg/kg (mpk) orally with the dosing vehicle 5% N,N′-Dimethylacetamide (SIGMA D137510) and 95% (40% 2-hydroxypropyl-beta-cyclodextrin in water) (SIGMA H107). Following Dose administration PWT threshold was evaluated again at four hours postdose. The Sprague-Dawley rats used in this assay were purchased from Harlan, 8520 Allison Pointe Blvd., Indianapolis, Ind., 46250, U.S.A. Sprague-Dawley rats are an outbred breed of albino rats first produced by the Sprague Dawley farms in Madison, Wis., U.S.A.
Percent Inhibition of Allodynia was determined by the formula: […]
ΔPWT measurements were averaged for each treatment group and statistical comparisons between groups were made using ANOVA and Dunnett's two-tailed test. […]

rat FAAH = target: T2, rat FAAH (Rattus norvegicus, UniProt P97612); assay: FAAH assay, rat FAAH enzyme inhibition (kinact/Ki); format: biochemical; conditions: oleamide substrate 50 μM, 30° C., read-out: rFAAH kinact/Ki
T2 construct: made in house; host or cells: E. coli
T2 sequence (P97612 1-579): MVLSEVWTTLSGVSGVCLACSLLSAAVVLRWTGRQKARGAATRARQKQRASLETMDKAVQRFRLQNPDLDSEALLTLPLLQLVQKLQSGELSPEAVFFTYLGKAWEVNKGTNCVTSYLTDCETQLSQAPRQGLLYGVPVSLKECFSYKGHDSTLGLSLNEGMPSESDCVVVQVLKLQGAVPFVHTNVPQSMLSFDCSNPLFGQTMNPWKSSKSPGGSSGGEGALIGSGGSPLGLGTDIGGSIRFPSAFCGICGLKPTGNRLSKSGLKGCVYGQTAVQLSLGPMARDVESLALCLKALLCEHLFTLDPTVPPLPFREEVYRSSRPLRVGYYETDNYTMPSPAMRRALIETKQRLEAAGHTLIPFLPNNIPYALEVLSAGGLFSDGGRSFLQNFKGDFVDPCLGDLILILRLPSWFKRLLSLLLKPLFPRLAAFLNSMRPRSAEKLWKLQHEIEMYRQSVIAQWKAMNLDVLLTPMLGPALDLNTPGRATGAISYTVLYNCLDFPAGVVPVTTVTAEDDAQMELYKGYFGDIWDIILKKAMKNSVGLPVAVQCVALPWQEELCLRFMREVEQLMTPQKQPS
Experimental: as §1, §2, §3, §4

Row | SMILES | kinact/KI (human FAAH) | CFA Efficacy (Male Sprague-Dawley Rats) | kinact/KI (rat FAAH)
1 | Cn1nnnc1NC(=O)N1CCC2(CC1)CC(c1noc(-c3ccc(OC(F)(F)F)cc3)n1)C2 [Example 50, N-(1-methyl-1H-tetrazol-5-yl)-2-{5-[4-(trifluoromethoxy)phenyl]-1,2,4-oxadiazol-3-yl}-7-azaspiro[3.5]nonane-7-carboxamide] | 16700 M⁻¹ s⁻¹ | (+) | 3530 M⁻¹ s⁻¹
2 | CCc1noc(NC(=O)N2CCC3(CC2)CC(c2cccc(OC(F)(F)F)c2)C3)c1C [Example 34, N-(3-ethyl-4-methylisoxazol-5-yl)-2-[3-(trifluoromethoxy)phenyl]-7-azaspiro[3.5]nonane-7-carboxamide] | 1650 M⁻¹ s⁻¹ | (+) | 1660 M⁻¹ s⁻¹
3 | Cc1noc(NC(=O)N2CCC3(CC2)CC(F)(c2cccc(OC(F)(F)F)c2)C3)c1C [Example 23, N-(3,4-dimethylisoxazol-5-yl)-2-fluoro-2-[3-(trifluoromethoxy)phenyl]-7-azaspiro[3.5]nonane-7-carboxamide] | 2820 M⁻¹ s⁻¹ | (+) | 1710 M⁻¹ s⁻¹
4 | Cn1nnnc1NC(=O)N1CCC2(CC1)CC(c1cccc(Oc3ccc(C(F)(F)F)cn3)c1)C2 [Example 54, N-(1-methyl-1H-tetrazol-5-yl)-2-(3-{[5-(trifluoromethyl)pyridin-2-yl]oxy}phenyl)-7-azaspiro[3.5]nonane-7-carboxamide] | 21700 M⁻¹ s⁻¹ | (+) | 26800 M⁻¹ s⁻¹
5 | Cc1noc(NC(=O)N2CCC3(CC2)CC(c2cccc(OC(F)(F)F)c2)C3)c1C [Example 4, N-(3,4-dimethylisoxazol-5-yl)-2-[3-(trifluoromethoxy)phenyl]-7-azaspiro[3.5]nonane-7-carboxamide] | 2830 M⁻¹ s⁻¹ | (+) | 3860 M⁻¹ s⁻¹
6 | Cc1noc(NC(=O)N2CCC3(CC2)CC(c2ccc(F)c(Cl)c2)C3)c1C [Example 14, 2-(3-chloro-4-fluorophenyl)-N-(3,4-dimethylisoxazol-5-yl)-7-azaspiro[3.5]nonane-7-carboxamide] | 4190 M⁻¹ s⁻¹ | (+) | 5820 M⁻¹ s⁻¹
7 | Cc1noc(NC(=O)N2CCC3(CC2)CC(F)(c2cccc(Cl)c2)C3)c1C [Example 32, 2-(3-chlorophenyl)-N-(3,4-dimethylisoxazol-5-yl)-2-fluoro-7-azaspiro[3.5]nonane-7-carboxamide] | 2830 M⁻¹ s⁻¹ | (+) | 1320 M⁻¹ s⁻¹
8 | Cc1cc(F)cc(C2CC3(CCN(C(=O)Nc4onc(C)c4C)CC3)C2)c1 [Example 18, N-(3,4-dimethylisoxazol-5-yl)-2-(3-fluoro-5-methylphenyl)-7-azaspiro[3.5]nonane-7-carboxamide] | 2640 M⁻¹ s⁻¹ | (−) | 1560 M⁻¹ s⁻¹
9 | Cn1nnnc1NC(=O)N1CCC2(CC1)CC(c1noc(-c3ccc(C(F)(F)F)cc3)n1)C2 [Example 49, N-(1-methyl-1H-tetrazol-5-yl)-2-{5-[4-(trifluoromethyl)phenyl]-1,2,4-oxadiazol-3-yl}-7-azaspiro[3.5]nonane-7-carboxamide] | 5240 M⁻¹ s⁻¹ | (+) | 552 M⁻¹ s⁻¹
10 | Cn1nnnc1NC(=O)N1CCC2(CC1)CC(c1cccc(Cl)c1F)C2 [Example 46, 2-(3-chloro-2-fluorophenyl)-N-(1-methyl-1H-tetrazol-5-yl)-7-azaspiro[3.5]nonane-7-carboxamide] | 14100 M⁻¹ s⁻¹ | (+) | 3410 M⁻¹ s⁻¹
11 | Cc1noc(NC(=O)N2CCC3(CC2)CC(c2noc(-c4ccc(OC(F)(F)F)cc4)n2)C3)c1C [Example 15, N-(3,4-dimethylisoxazol-5-yl)-2-{5-[4-(trifluoromethoxy)phenyl]-1,2,4-oxadiazol-3-yl}-7-azaspiro[3.5]nonane-7-carboxamide] | 3460 M⁻¹ s⁻¹ | (+) | 1730 M⁻¹ s⁻¹
12 | Cc1noc(NC(=O)N2CCC3(CC2)CC(c2cccc4c2OC(F)(F)O4)C3)c1C [Example 28, 2-(2,2-difluoro-1,3-benzodioxol-4-yl)-N-(3,4-dimethylisoxazol-5-yl)-7-azaspiro[3.5]nonane-7-carboxamide] | 2220 M⁻¹ s⁻¹ | (+) | 1060 M⁻¹ s⁻¹
13 | Cc1noc(NC(=O)N2CCC3(CC2)CC(c2cccc(OCCOc4ccccc4Cl)c2)C3)c1C [Example 27, 2-{3-[2-(2-chlorophenoxy)ethoxy]phenyl}-N-(3,4-dimethylisoxazol-5-yl)-7-azaspiro[3.5]nonane-7-carboxamide] | 2940 M⁻¹ s⁻¹ | (+) | 1810 M⁻¹ s⁻¹
14 | Cc1noc(NC(=O)N2CCC3(CC2)CC(c2cccc(Cl)c2F)C3)c1C [Example 29, 2-(3-chloro-2-fluorophenyl)-N-(3,4-dimethylisoxazol-5-yl)-7-azaspiro[3.5]nonane-7-carboxamide] | 3840 M⁻¹ s⁻¹ | (+) | 2470 M⁻¹ s⁻¹
